Assay: Drug release (dissolution) tests in phosphate buffer pH 7.2
Assay type: physicochemical
Settings: gelatin capsule, phosphate buffer pH 7.2, 37.0° C., 400 rpm
Protocol: Drug release tests for piroxicam nanoparticles and bulk (reference) piroxicam were done to investigate the effect of particle size on the dissolution rate. The tests were conducted in glass vials under heating (37.0±0.5° C.) and stirring (400 rpm) (H+P Labortechnik AG, Multitherm, Germany). Samples were placed in a gelatin capsule and anchored with an iron wire to prevent the capsule from surfacing. The capsule was then placed in glass vials containing phosphate buffer (50 mL; pH 7.2). Aliquots (1 mL) were taken at the time points ranging from 1 min to 48 hours. Drug release tests were conducted in triplicate. Samples were analyzed with high performance liquid chromatography (HPLC Thermo System Products, Agilent 1200 Infinity Series, Agilent Technologies, Germany) using a Discovery® C18 (Supelco Analytical, U.S.) column with guard column and a flow rate of 1 mL/min. The mobile phase was 60:40 (v/v) acetonitrile and 0.05% trifluoroacetic acid. The UV detection of piroxicam was set to 333 nm with a retention time of 2.9 min and total run time of 4 min at 30° C. A standard curve for […] quantification was made from piroxicam concentrations of 0.1-25 μg/mL (R^2=0.999).

With CN1C(C(=O)Nc2ccccn2)=C(O)c2ccccc2S1(=O)=O [bulk piroxicam, 4-hydroxy-2-methyl-N-(2-pyridinyl)-2H-1,2-benzothiazine-3-carboxamide 1,1-dioxide] the “dissolution rate compared with the literature (Lai et al. 2011)” value was “agreed and exceeded that reported in the literature”.

— patent US10098842B2, “Method and a device for producing nanoparticles” (Nanoform Finland Oy, priority 2014, dated 2018)
